Results taken from patent publication US12139492B2 (Endotarget Inc., priority 2021, dated 2024).

Legend:
Format in all cases: cell-based
[1] = target: BTK (Homo sapiens, UniProt Q06187); test: BTK degradation, DC50 and Dmax of Table 1 (cell line not given); set-up: endogenous in cells; conditions: for DC50: concentration giving 50% reduction of BTK expression level
[2] = tested on: JeKo-1 cells; test: Antiproliferative effect, MTS cell viability assay, JeKo-1 cells; conditions: Homo sapiens; JeKo-1 mantle cell lymphoma cells; read-out: IC50 (anti-proliferation) JeKO-1 cells
Summary of the method: (§1)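 Readout was MTS-derived formazan absorbance (490 nm) reflecting metabolically active cells. Treatment lasted 72 h over a 0–10 μM range (0.001, 0.01, 0.1, 1, 10 μM) in JeKo-1 and Mino B-cell malignancy cells.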

[3] = tested on: Mino cells; test: Antiproliferative effect, MTS cell viability assay, Mino cells; conditions: Homo sapiens, MINO, Mino mantle cell lymphoma cells; read-out: IC50 (anti-proliferation) Mino cells
Summary of the method: as §1

Chain of BTK (Q06187 whole entry): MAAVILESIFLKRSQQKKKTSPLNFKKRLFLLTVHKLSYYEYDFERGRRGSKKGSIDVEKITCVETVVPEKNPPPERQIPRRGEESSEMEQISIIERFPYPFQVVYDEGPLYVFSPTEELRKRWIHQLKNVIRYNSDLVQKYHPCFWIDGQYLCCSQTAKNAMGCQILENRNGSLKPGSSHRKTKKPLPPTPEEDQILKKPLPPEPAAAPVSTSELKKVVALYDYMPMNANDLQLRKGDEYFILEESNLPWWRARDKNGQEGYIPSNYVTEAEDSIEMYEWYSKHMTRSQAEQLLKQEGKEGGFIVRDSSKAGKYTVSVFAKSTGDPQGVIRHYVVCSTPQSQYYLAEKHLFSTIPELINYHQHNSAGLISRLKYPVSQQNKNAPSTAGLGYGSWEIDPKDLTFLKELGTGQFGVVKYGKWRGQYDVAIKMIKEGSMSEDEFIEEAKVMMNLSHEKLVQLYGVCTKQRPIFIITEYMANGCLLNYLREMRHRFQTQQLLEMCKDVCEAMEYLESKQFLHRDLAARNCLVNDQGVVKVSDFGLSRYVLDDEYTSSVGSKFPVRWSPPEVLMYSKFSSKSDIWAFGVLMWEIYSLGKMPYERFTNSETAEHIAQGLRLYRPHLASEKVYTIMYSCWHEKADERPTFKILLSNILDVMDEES

| Compound | Dmax [1] | DC50 [1] | IC50 [2] | IC50 [3] |
| --- | --- | --- | --- | --- |
| Nc1ncnc2c1c(-c1ccc(Oc3ccccc3)cc1)nn2[C@@H]1CCCN(C(=O)N2CCN(CC3CCN(c4ccc5c(c4)C(=O)N(C4CCC(=O)NC4=O)C5=O)CC3)CC2)C1 (stereo partly drawn) [Compound 57, 5-(4-((4-((R)-3-(4-amino-3-(4-phenoxyphenyl)-1H-pyrazolo[3,4-d]pyrimidin-1-yl)piperidine-1-carbonyl)piperazin-1-yl)methyl)piperidin-1-yl)-2-(2,6-dioxopiperidin-3-yl)isoindoline-1,3-dione] | > 90% | 10 to 50 nM | 1000 to 10000 nM | 1000 to 10000 nM |
| Nc1ncnc2c1c(-c1ccc(Oc3ccccc3)cc1)nn2[C@@H]1CCCN(C(=O)N2CCN(CC3CCN(c4ccc5c(c4)CN(C4CCC(=O)NC4=O)C5=O)CC3)CC2)C1 (stereo partly drawn) [Compound 58, 3-(5-(4-((4-((R)-3-(4-amino-3-(4-phenoxyphenyl)-1H-pyrazolo[3,4-d]pyrimidin-1-yl)piperidine-1-carbonyl)piperazin-1-yl)methyl)piperidin-1-yl)-1-oxoisoindolin-2-yl)piperidine-2,6-dione] | > 90% | 10 to 50 nM | < 1000 nM | < 1000 nM |
| Nc1ncnc2c1c(-c1ccc(Oc3ccccc3)cc1)nn2[C@@H]1CCCN(C(=O)N2CCC(CC3CCN(c4ccc5c(c4)C(=O)N(C4CCC(=O)NC4=O)C5=O)CC3)CC2)C1 (stereo partly drawn) [Compound 59, 5-(4-((1-((R)-3-(4-amino-3-(4-phenoxyphenyl)-1H-pyrazolo[3,4-d]pyrimidin-1-yl)piperidine-1-carbonyl)piperidin-4-yl)methyl)piperidin-1-yl)-2-(2,6-dioxopiperidin-3-yl)isoindoline-1,3-dione] | > 90% | 10 to 50 nM | < 1000 nM | < 1000 nM |
| Nc1ncnc2c1c(-c1ccc(Oc3ccccc3)cc1)nn2[C@@H]1CCCN(C(=O)N2CCC(CC3CCN(c4ccc5c(c4)CN(C4CCC(=O)NC4=O)C5=O)CC3)CC2)C1 (stereo partly drawn) [Compound 60, 3-(5-(4-((1-((R)-3-(4-amino-3-(4-phenoxyphenyl)-1H-pyrazolo[3,4-d]pyrimidin-1-yl)piperidine-1-carbonyl)piperidin-4-yl)methyl)piperidin-1-yl)-1-oxoisoindolin-2-yl)piperidine-2,6-dione] | > 90% | < 10 nM | < 1000 nM | < 1000 nM |
| Nc1ncnc2c1c(-c1ccc(Oc3ccccc3)cc1)nn2[C@@H]1CCCN(C(=O)N2CCC(CN3CCC(c4ccc5c(c4)C(=O)N(C4CCC(=O)NC4=O)C5=O)CC3)CC2)C1 (stereo partly drawn) [Compound 61, 5-(1-((1-((R)-3-(4-amino-3-(4-phenoxyphenyl)-1H-pyrazolo[3,4-d]pyrimidin-1-yl)piperidine-1-carbonyl)piperidin-4-yl)methyl)piperidin-4-yl)-2-(2,6-dioxopiperidin-3-yl)isoindoline-1,3-dione] | > 90% | 10 to 50 nM | < 1000 nM | < 1000 nM |
| Nc1ncnc2c1c(-c1ccc(Oc3ccccc3)cc1)nn2[C@@H]1CCCN(C(=O)N2CCC(CN3CCC(c4ccc5c(c4)CN(C4CCC(=O)NC4=O)C5=O)CC3)CC2)C1 (stereo partly drawn) [Compound 62, 3-(5-(1-((1-((R)-3-(4-amino-3-(4-phenoxyphenyl)-1H-pyrazolo[3,4-d]pyrimidin-1-yl)piperidine-1-carbonyl)piperidin-4-yl)methyl)piperidin-4-yl)-1-oxoisoindolin-2-yl)piperidine-2,6-dione] | > 90% | 10 to 50 nM | < 1000 nM | < 1000 nM |
| Nc1ncnc2c1c(-c1ccc(Oc3ccccc3)cc1)nn2[C@@H]1CCCN(C(=O)N2CCC(CCN3CCN(c4ccc5c(c4)CN(C4CCC(=O)NC4=O)C5=O)CC3)CC2)C1 (stereo partly drawn) [Compound 64, 3-(5-(4-(2-(1-((R)-3-(4-amino-3-(4-phenoxyphenyl)-1H-pyrazolo[3,4-d]pyrimidin-1-yl)piperidine-1-carbonyl)piperidin-4-yl)ethyl)piperazin-1-yl)-1-oxoisoindolin-2-yl)piperidine-2,6-dione] | > 90% | < 10 nM | 1000 to 10000 nM | < 1000 nM |
| Nc1ncnc2c1c(-c1ccc(Oc3ccccc3)cc1)nn2[C@@H]1CCCN(C(=O)N2CCN(CCN3CCN(c4ccc5c(c4)C(=O)N(C4CCC(=O)NC4=O)C5=O)CC3)CC2)C1 (stereo partly drawn) [Compound 65, 5-(4-(2-(4-((R)-3-(4-amino-3-(4-phenoxyphenyl)-1H-pyrazolo[3,4-d]pyrimidin-1-yl)piperidine-1-carbonyl)piperazin-1-yl)ethyl)piperazin-1-yl)-2-(2,6-dioxopiperidin-3-yl)isoindoline-1,3-dione] | > 90% | < 10 nM | 1000 to 10000 nM | 1000 to 10000 nM |
| Nc1ncnc2c1c(-c1ccc(Oc3ccccc3)cc1)nn2[C@@H]1CCCN(C(=O)N2CCN(CCN3CCN(c4ccc5c(c4)CN(C4CCC(=O)NC4=O)C5=O)CC3)CC2)C1 (stereo partly drawn) [Compound 66, 3-(5-(4-(2-(4-((R)-3-(4-amino-3-(4-phenoxyphenyl)-1H-pyrazolo[3,4-d]pyrimidin-1-yl)piperidine-1-carbonyl)piperazin-1-yl)ethyl)piperazin-1-yl)-1-oxoisoindolin-2-yl)piperidine-2,6-dione] | > 90% | < 10 nM | < 1000 nM | 1000 to 10000 nM |
| Nc1ncnc2c1c(-c1ccc(Oc3ccccc3)cc1)nn2[C@@H]1CCCN(C(=O)N2CCN(CCC3CCN(c4ccc5c(c4)C(=O)N(C4CCC(=O)NC4=O)C5=O)CC3)CC2)C1 (stereo partly drawn) [Compound 67, 5-(4-(2-(4-((R)-3-(4-amino-3-(4-phenoxyphenyl)-1H-pyrazolo[3,4-d]pyrimidin-1-yl)piperidine-1-carbonyl)piperazin-1-yl)ethyl)piperidin-1-yl)-2-(2,6-dioxopiperidin-3-yl)isoindoline-1,3-dione] | > 90% | < 10 nM | 1000 to 10000 nM | 1000 to 10000 nM |
| Nc1ncnc2c1c(-c1ccc(Oc3ccccc3)cc1)nn2[C@@H]1CCCN(C(=O)N2CCN(CCC3CCN(c4ccc5c(c4)CN(C4CCC(=O)NC4=O)C5=O)CC3)CC2)C1 (stereo partly drawn) [Compound 68, 3-(5-(4-(2-(4-((R)-3-(4-amino-3-(4-phenoxyphenyl)-1H-pyrazolo[3,4-d]pyrimidin-1-yl)piperidine-1-carbonyl)piperazin-1-yl)ethyl)piperidin-1-yl)-1-oxoisoindolin-2-yl)piperidine-2,6-dione] | > 90% | < 10 nM | 1000 to 10000 nM | 1000 to 10000 nM |
| Nc1ncnc2c1c(-c1ccc(Oc3ccccc3)cc1)nn2[C@@H]1CCCN(C(=O)N2CCN(CCN3CCC(c4ccc5c(c4)C(=O)N(C4CCC(=O)NC4=O)C5=O)CC3)CC2)C1 (stereo partly drawn) [Compound 69, 5-(1-(2-(4-((R)-3-(4-amino-3-(4-phenoxyphenyl)-1H-pyrazolo[3,4-d]pyrimidin-1-yl)piperidine-1-carbonyl)piperazin-1-yl)ethyl)piperidin-4-yl)-2-(2,6-dioxopiperidin-3-yl)isoindoline-1,3-dione] | > 90% | < 10 nM | 1000 to 10000 nM | 1000 to 10000 nM |
| Nc1ncnc2c1c(-c1ccc(Oc3ccccc3)cc1)nn2[C@@H]1CCCN(C(=O)N2CCN(CCN3CCC(c4ccc5c(c4)CN(C4CCC(=O)NC4=O)C5=O)CC3)CC2)C1 (stereo partly drawn) [Compound 70, 3-(5-(1-(2-(4-((R)-3-(4-amino-3-(4-phenoxyphenyl)-1H-pyrazolo[3,4-d]pyrimidin-1-yl)piperidine-1-carbonyl)piperazin-1-yl)ethyl)piperidin-4-yl)-1-oxoisoindolin-2-yl)piperidine-2,6-dione] | > 90% | < 10 nM | 1000 to 10000 nM | 1000 to 10000 nM |
| Nc1ncnc2c1c(-c1ccc(Oc3ccccc3)cc1)nn2[C@@H]1CCCN(C(=O)N2CCC(CCC3CCN(c4ccc5c(c4)C(=O)N(C4CCC(=O)NC4=O)C5=O)CC3)CC2)C1 (stereo partly drawn) [Compound 71, 5-(4-(2-(1-((R)-3-(4-amino-3-(4-phenoxyphenyl)-1H-pyrazolo[3,4-d]pyrimidin-1-yl)piperidine-1-carbonyl)piperidin-4-yl)ethyl)piperidin-1-yl)-2-(2,6-dioxopiperidin-3-yl)isoindoline-1,3-dione] | > 90% | < 10 nM | 1000 to 10000 nM | 1000 to 10000 nM |
| Nc1ncnc2c1c(-c1ccc(Oc3ccccc3)cc1)nn2[C@@H]1CCCN(C(=O)N2CCC(CCC3CCN(c4ccc5c(c4)CN(C4CCC(=O)NC4=O)C5=O)CC3)CC2)C1 (stereo partly drawn) [Compound 72, 3-(5-(4-(2-(1-((R)-3-(4-amino-3-(4-phenoxyphenyl)-1H-pyrazolo[3,4-d]pyrimidin-1-yl)piperidine-1-carbonyl)piperidin-4-yl)ethyl)piperidin-1-yl)-1-oxoisoindolin-2-yl)piperidine-2,6-dione] | > 90% | < 10 nM | 1000 to 10000 nM | 1000 to 10000 nM |
| Nc1ncnc2c1c(-c1ccc(Oc3ccccc3)cc1)nn2[C@@H]1CCCN(C(=O)N2CCC(CCN3CCC(c4ccc5c(c4)C(=O)N(C4CCC(=O)NC4=O)C5=O)CC3)CC2)C1 (stereo partly drawn) [Compound 73, 5-(1-(2-(1-((R)-3-(4-amino-3-(4-phenoxyphenyl)-1H-pyrazolo[3,4-d]pyrimidin-1-yl)piperidine-1-carbonyl)piperidin-4-yl)ethyl)piperidin-4-yl)-2-(2,6-dioxopiperidin-3-yl)isoindoline-1,3-dione] | > 90% | 10 to 50 nM | > 10000 nM | 1000 to 10000 nM |
| Nc1ncnc2c1c(-c1ccc(Oc3ccccc3)cc1)nn2[C@@H]1CCCN(C(=O)N2CCC(CCN3CCC(c4ccc5c(c4)CN(C4CCC(=O)NC4=O)C5=O)CC3)CC2)C1 (stereo partly drawn) [Compound 74, 3-(5-(1-(2-(1-((R)-3-(4-amino-3-(4-phenoxyphenyl)-1H-pyrazolo[3,4-d]pyrimidin-1-yl)piperidine-1-carbonyl)piperidin-4-yl)ethyl)piperidin-4-yl)-1-oxoisoindolin-2-yl)piperidine-2,6-dione] | > 90% | 10 to 50 nM | > 10000 nM | > 10000 nM |
